For one experiment, the target named is T1, AURKA (Homo sapiens, UniProt O14965).
T1 construct: purchased Eurofins DiscoverX
The experiment can be described thus: KdELECT binding assay.

A further experiment has as its target PRP4 (Homo sapiens, UniProt Q13523). The experiment can be described thus: KiNativ, OCI cells live cell. It counts as cell-based. The note with it: 2 h, labeling site Lys2, peptide […].
Another experiment deals with MOLM13-Luc+ cells. Put plainly: MOLM13-Luc+ xenograft model. Type of experiment: in vivo, NSG mice. The settings on record: 3 weeks. The method, then:
(§1) Engraftment and growth of leukemic cells were monitored by noninvasive bioluminescence imaging in cell line xenograft models, as previously done ([47]). Details on the cell engraftment and dosing in mouse models are provided in the Supplemental Methods.
Cell viability of primary samples
HS5-GFP human bone marrow stromal cells were plated and cultured for 72 hours to near confluence.
MOLM13 cells were then seeded onto HS5-GFP cells to establish a co-culture. Twenty-four hours later, cells were treated with increasing concentrations of drug for an additional 72 hours. MOLM13 and HS5-GFP cells were then separated and MTT assay s were performed for cell viability assessment of each cell population.
For murine or human primary AML cells, 100,000 cells/well were plated in a 96-well plate and treated with increasing concentrations of drug. Cell viability, via trypan blue, was measured every 24 hours. If the viability fell below 50% or at 72 hours of treatment, whichever came earlier, cell viability of each plate was measured via CellTiter-Glo. Primary human AML cells were obtained from the OSUCCC Leukemia Tissue Bank Shared […]
Primary AML samples were analyzed by targeted gene sequencing of 80 genes, as previously described (1). Samples were pooled and analyzed on a MiSeq system using the Illuminia MiSeq Reagent Kit v3. […]
(§2) Luc+ or MOLM13-Res -Luc+ cells, 0.5 million OCI-AML3 -Luc+ cells, and 10,000 Ba/F3-FLT3-ITD/F691L-GFP+ cells. Weekly tumor engraftment of cell line xenograft models were assessed after injection of D-luciferin (150mg/kg i.p.; Gold Biotechnology, Inc, St. Louis, MO) on Xenogen IVIS-200 imaging system (Perkin Elmer, Waltham, MA) or GFP monitoring by peripheral blood via BD LSR II flow cytometer (BD Biosciences, San Jose, CA). Signal intensity was analyzed using Living Image Software (PerkinElmer) or FlowJo v10.0.08 software (FlowJo, LLC, Ashland, OR). […]
At indicated time points, cells were collected and washed with PBS. CD11b expression was measured using anti-CD11b -APC antibody (BioLegend, San Diego, CA). […]

The subject of the next experiment is 40 kinases. The settings on record: 200 nM; 11 of 40 kinases; cited from earlier work.
Another experiment addresses PIK3C3 (Homo sapiens, UniProt Q8NEB9). The experiment can be described thus: KiNativ, OCI cells live cell. The settings on record: 2 h, labeling site ATP. Type of experiment: cell-based.
Experiment [1] relates to murine FLT3-ITD+/– IDH2-R140Q+/– AML cells. Put plainly: Primary transplantation model of murine AML cells. Type of experiment: in vivo, NSG mice. The method, then:
as §1
as §2, with “OR). Mice were randomized to treatment groups based on signal intensity and leukemia burden. Drug treatments were started on days 3, 7, or 13 after cell injection in OCI-AML3, MOLM13, and MOLM13-Res xenografts, respectively. In murine AML transplantation model, 1 million FLT3-ITD+/-/IDH2-R140Q+/- splenocytes (in house colony) were intravenously injected in male NSG mice.” for “OR).”
At indicated time points, cells were collected and washed with PBS. CD11b expression was measured using anti-CD11b -APC antibody (BioLegend, San Diego, CA). […] CD11b expression and apoptosis were measured by BD LSR II flow cytometer. […]

In a further experiment the target is CHK1 (Homo sapiens, UniProt O14757). The experiment can be described thus: KiNativ, OCI cells live cell. Type of experiment: cell-based. The settings on record: labeling site Lys2, peptide DIKPENLLLDER
Chain of CHK1 (O14757 whole entry): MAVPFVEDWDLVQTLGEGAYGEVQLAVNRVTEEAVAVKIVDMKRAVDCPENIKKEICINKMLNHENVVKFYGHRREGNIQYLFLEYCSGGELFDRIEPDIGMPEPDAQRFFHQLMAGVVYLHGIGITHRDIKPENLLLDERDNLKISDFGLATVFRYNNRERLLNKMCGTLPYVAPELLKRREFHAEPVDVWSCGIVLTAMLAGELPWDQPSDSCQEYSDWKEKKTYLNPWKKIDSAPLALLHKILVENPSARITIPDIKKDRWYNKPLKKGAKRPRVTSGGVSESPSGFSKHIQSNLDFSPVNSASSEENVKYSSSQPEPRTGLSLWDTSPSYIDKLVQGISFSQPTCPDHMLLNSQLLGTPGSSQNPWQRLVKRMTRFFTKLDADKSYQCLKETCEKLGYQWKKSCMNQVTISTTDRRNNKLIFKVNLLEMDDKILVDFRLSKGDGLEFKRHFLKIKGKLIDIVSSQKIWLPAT

Data on one molecule can be found in paper PMC7714403 (JCI Insight, 2020).

Chain of PIK3C3 (Q8NEB9 whole entry): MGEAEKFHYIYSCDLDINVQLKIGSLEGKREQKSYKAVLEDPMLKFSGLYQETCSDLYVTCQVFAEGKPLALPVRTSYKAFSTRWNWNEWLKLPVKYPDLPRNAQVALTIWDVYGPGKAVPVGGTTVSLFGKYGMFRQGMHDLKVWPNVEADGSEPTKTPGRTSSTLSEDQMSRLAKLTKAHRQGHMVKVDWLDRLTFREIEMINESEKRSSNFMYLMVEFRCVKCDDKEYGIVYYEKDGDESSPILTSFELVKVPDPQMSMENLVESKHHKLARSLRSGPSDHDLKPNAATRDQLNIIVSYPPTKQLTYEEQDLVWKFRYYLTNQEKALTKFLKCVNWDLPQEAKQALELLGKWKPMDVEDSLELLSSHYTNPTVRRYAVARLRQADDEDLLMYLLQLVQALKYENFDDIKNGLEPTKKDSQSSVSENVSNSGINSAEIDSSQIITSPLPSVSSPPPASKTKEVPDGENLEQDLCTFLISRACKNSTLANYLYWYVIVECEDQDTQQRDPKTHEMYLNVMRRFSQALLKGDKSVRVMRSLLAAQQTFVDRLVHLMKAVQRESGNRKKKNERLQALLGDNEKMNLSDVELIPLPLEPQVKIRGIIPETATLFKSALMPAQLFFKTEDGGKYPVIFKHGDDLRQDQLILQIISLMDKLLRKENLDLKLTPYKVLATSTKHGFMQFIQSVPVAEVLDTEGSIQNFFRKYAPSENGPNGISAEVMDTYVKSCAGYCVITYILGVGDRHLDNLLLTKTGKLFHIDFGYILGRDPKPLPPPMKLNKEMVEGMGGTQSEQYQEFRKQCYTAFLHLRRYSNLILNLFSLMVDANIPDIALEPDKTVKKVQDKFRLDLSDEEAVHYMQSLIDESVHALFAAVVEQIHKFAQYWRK
T1 sequence (O14965 whole entry): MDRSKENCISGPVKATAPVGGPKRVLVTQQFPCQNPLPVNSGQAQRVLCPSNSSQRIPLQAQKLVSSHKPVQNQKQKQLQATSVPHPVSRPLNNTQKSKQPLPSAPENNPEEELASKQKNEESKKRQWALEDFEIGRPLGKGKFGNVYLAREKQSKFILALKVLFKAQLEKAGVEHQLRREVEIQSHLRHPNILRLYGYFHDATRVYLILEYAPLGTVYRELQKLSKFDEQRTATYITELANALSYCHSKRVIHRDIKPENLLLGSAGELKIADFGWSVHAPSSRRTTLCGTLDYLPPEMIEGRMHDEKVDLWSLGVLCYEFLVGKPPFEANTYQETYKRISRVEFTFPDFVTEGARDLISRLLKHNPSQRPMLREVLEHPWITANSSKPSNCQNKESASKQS
Chain of PRP4 (Q13523 whole entry): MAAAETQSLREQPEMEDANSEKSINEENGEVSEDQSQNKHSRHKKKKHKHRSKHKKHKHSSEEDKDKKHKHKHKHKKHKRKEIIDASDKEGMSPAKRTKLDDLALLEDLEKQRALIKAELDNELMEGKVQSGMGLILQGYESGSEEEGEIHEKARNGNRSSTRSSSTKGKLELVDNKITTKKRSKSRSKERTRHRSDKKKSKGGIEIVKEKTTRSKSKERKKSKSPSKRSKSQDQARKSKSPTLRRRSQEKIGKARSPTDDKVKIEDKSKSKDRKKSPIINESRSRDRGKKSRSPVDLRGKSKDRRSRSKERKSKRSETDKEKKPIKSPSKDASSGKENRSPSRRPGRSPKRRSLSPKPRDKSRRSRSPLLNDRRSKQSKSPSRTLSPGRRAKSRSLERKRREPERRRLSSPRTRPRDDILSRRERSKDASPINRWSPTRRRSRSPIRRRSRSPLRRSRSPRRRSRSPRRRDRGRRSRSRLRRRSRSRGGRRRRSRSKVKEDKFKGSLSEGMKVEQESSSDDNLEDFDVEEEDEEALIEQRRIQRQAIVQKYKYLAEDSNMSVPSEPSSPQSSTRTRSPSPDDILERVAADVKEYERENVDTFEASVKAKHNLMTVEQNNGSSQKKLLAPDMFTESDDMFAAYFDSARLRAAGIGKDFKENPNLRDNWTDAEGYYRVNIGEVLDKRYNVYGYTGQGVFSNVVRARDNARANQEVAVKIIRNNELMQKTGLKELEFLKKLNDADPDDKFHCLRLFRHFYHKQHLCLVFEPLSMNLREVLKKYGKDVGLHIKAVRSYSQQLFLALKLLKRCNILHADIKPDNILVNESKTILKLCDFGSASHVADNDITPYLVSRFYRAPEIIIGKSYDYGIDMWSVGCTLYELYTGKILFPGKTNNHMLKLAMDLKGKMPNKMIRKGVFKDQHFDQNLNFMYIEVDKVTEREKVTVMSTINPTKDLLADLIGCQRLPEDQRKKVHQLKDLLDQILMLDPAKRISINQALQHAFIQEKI

Regarding `CN1CCN(Cc2ccc(Nc3ncc(Cl)c(Nc4ccccc4S(=O)(=O)N(C)C)n3)cc2)CC1` [TP-0903], the Kd at AURKA was < 5 nM. Moreover, the figures for the inhibition at 0.1 µM against PRP4, against PIK3C3 (peptide TEDGGKYPVIFKHGDDLR) and against PIK3C3 (peptide TEDGGKYPVIFKHGDDLRQDQLILQIISLMDK) were -18.7%, -16.8% and -18.2%, respectively. For the same molecule, the “Survival prolonged compared with vehicle” value in the experiment on MOLM13-Luc+ cells (60 mg/kg 5 days a week) is 13 days; with MOLM13-Luc+ cells (60 mg/kg once daily continuously), 17 days; in experiment [1] (40 mg/kg once daily up to 6 weeks), 9 days. The “Leukemia outgrowth (bioluminescence)” value with MOLM13-Luc+ cells (60 mg/kg) is listed as “suppressed leukemia outgrowth”. Further, the Inhibition of kinases in the experiment with 40 kinases is > 50%. In addition, the “Spleen weight at study endpoint (mean ± SD)” value in experiment [1] (40 mg/kg once daily) came out at 50 ± 13 mg. Further, the Inhibition on CHK1 is 29.7%.
